Laboratory results published in EP0271829A2, “Delta-hydroxy-beta-lysine derivatives and their production” (Takeda Chemical Industries, Ltd., priority 1986, dated 1988).
Converted amounts (≈) assume the structure as drawn.

Tests used:
S. aureus 308A-1 [1] = experiment: Antibacterial activity against gram-positive bacteria (MIC on Tripticase Soy Agar); format: cell-based; settings: Staphylococcus aureus, 308A1, Medium: Tripticase Soy Agar, Inoculum size: 10^8 cfu/ml
Description: (§1) Thus obtained Compound (I) is useful as medicines, for example, antibiotics against certain types of gram-positive and gram-negative beacteria. [table] [table]

S. aureus 308A-1 [2] = experiment: Antibacterial activity in mice, s.c. (ED50); format: in vivo; settings: Staphylococcus aureus, 308A1, sc
Description: as §1

Row | SMILES | MIC (S. aureus 308A-1 [1]) [µg/mL] | ED50 (S. aureus 308A-1 [2]) [mg/kg]
1 | C/C=C\C=C\C(=O)NCC(O)CC(CC(=O)NCCC(=N)N)NCC (stereo not shown) [Compound 82] | > 100 | 25
2 | C/C=C\C=C\C(=O)NCC(O)CC(CC(=O)NCCC(=N)N)NC(=O)C(N)CCCCC(=O)OC (stereo not shown) [Compound 86b] | > 100 | 25
3 | CN(CC(=O)O)NC(=O)C[C@H](N)C[C@@H](O)CN [Negamycin, 2-(3R,5R)-3,6-diamino-5-hydroxyhexanoyl-1-methylhydrazinoacetic acid, reference compound] | > 100 | 38.6

Further lines, with some results ahead:

Row | MIC (S. aureus 308A-1 [1]) [µg/mL] | SMILES | ED50 (S. aureus 308A-1 [2]) [mg/kg]
4 | 100 (≈ 321 µM) | C=C/C=C/C(=O)NCC(O)CC(N)CC(=O)NCCC(=N)N (stereo not shown) [Compound 38b] | 6.25
5 | > 100 | C/C=C\C=C\C(=O)NCC(O)CC(CC(=O)NCCC(=N)N)NC (stereo not shown) [Compound 80] | 9.64
